The subject of experiment [1] is HCV genotype 1a (H77 strain) replicon in HUH-7 cells. Briefly: HCV replicon luciferase reporter assay, genotype 1a. The format is cell-based. As to conditions: Hepatitis C virus, Huh-7, 72 h, HCV genotype 1a replicon luciferase, 3 days incubation. In outline:
(§1)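 Replicon inhibition for both genotypes was measured as Renilla luciferase signal (EnduRen, 7.5 μM final, 2 h) after 3-day, 37° C exposure of replicon-bearing HUH-7 cells in 4% FCS DMEM, 0.5% DMSO. The 1b construct carries S1179I; the 1a H77 construct carries P1496L and S2204I. Twenty-point, 3-fold dilutions were fitted four-parametrically for EC50, and CC50 was taken from multiplexed Cell Titer-Blue.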
A general note: In antiviral work, replicon cells carry a viral genome segment that copies itself.

Experiment [2] has as its system HCV genotype 1b (Con1) replicon in HUH-7 cells. Briefly: HCV replicon luciferase reporter assay, genotype 1b. The experiment is classed as cell-based. As to conditions: Hepatitis C virus, Huh-7, 72 h, HCV genotype 1b replicon luciferase, 3 days incubation. In outline:
as §1

Where [3] appears, read: GETYPE1A, read-out: LE_1a (EC50, range).
[4] abbreviates: GETYPE1B, read-out: LE_1b (EC50, range).

The source of these data is patent publication US9499550B2 (BRISTOL-MYERS SQUIBB COMPANY, priority 2012, dated 2016).

Each structure is given as a SMILES string. Where two headings read alike, the source gives them in different places.

The term EC50 denotes the concentration needed to bring the measured effect to its halfway point.

For `COc1ccc2c(O[C@@H]3C[C@H]4C(=O)N[C@]5(C(=O)NS(=O)(=O)C6(C)CC6)C[C@H]5/C=C\CC[C@@H](C)C[C@@H](C)[C@H](NC(=O)OC(C)(C)C)C(=O)N4C3)cc(-c3ccc(OC(C)C)cc3)nc2c1` [Compound 4242, tert-butyl ((2R,6S,7R,9R,13aS,14aR,16aS,Z)-2-((2-(4-isopropoxyphenyl)-7-methoxyquinolin-4-yl)oxy)-7,9-dimethyl-14a-(((1-methylcyclopropyl)sulfonyl)carbamoyl)-5,16-dioxo-1,2,3,5,6,7,8,9,10,11,13a,14,14a,15,16,16a-hexadecahydrocyclopropa[e]pyrrolo[1,2-a][1,4]diazacyclopentadecin-6-yl)carbamate], the EC50 in experiment [1] (read-out: LE_1a (EC50, range)) is 0.51 to 1 nM; in experiment [2] (read-out: LE_1b (EC50, range)) it was 0.51 to 1 nM.

`CC[C@@H]1C[C@H](C)CC/C=C\[C@@H]2C[C@@]2(C(=O)NS(=O)(=O)C2CC2)NC(=O)[C@@H]2C[C@@H](Oc3ncc(N4CCOCC4)c4cc(OC)c(F)cc34)CN2C(=O)[C@H]1NC(=O)OC(C)(C)C(F)(F)F` [Compound 4243]: the EC50 in experiment [1] (setting [3]) is 1.01 to 5 nM; in experiment [2] (setting [4]) it was 0.51 to 1 nM.

Turning to `CC[C@@H]1C[C@H](C)CC/C=C\[C@@H]2C[C@@]2(C(=O)NS(=O)(=O)C2(C)CC2)NC(=O)[C@@H]2C[C@@H](Oc3nc4cc(OC)ccc4nc3C(F)(F)F)CN2C(=O)[C@H]1NC(=O)OC(C)(C)C(F)(F)F` [Compound 4244], the EC50 in experiment [1] (setting [3]) and in experiment [2] (setting [4]) was 1.01 to 5 nM throughout.

With `CC[C@@H]1C[C@H](C)CC/C=C\[C@@H]2C[C@@]2(C(=O)NS(=O)(=O)C2(C)CC2)NC(=O)[C@@H]2C[C@@H](Oc3cc(-n4cccn4)nc4cc(OC)ccc34)CN2C(=O)[C@H]1NC(=O)OC(C)(C)C` [Compound 4245, tert-butyl ((2R,6S,7R,9R,13aS,14aR,16aS,Z)-7-ethyl-2-((7-methoxy-2-(1H-pyrazol-1-yl)quinolin-4-yl)oxy)-9-methyl-14a-(((1-methylcyclopropyl)sulfonyl)carbamoyl)-5,16-dioxo-1,2,3,5,6,7,8,9,10,11,13a,14,14a,15,16,16a-hexadecahydrocyclopropa[e]pyrrolo[1,2-a][1,4]diazacyclopentadecin-6-yl)carbamate], the EC50 in experiment [1] (read-out: LE_1a (EC50, range)) fell in the range of 0.51 to 1 nM; in experiment [2] (read-out: LE_1b (EC50, range)), 0.1 to 0.5 nM.

Consider `CC[C@@H]1C[C@H](C)CC/C=C\[C@@H]2C[C@@]2(C(=O)NS(=O)(=O)C2(C)CC2)NC(=O)[C@@H]2C[C@@H](Oc3cc(-n4cccn4)nc4cc(OC)ccc34)CN2C(=O)[C@H]1NC(=O)OC(C)(C)C(F)(F)F` [Compound 4246], for which the EC50 lay in the range of 1.01 to 5 nM in experiment [1] (setting [3]) and 0.51 to 1 nM in experiment [2] (setting [4]).

For `COc1ccc2c(O[C@@H]3C[C@H]4C(=O)N[C@]5(C(=O)NS(=O)(=O)C6(C)CC6)C[C@H]5/C=C\CC[C@@H](C)C[C@@H](C)[C@H](NC(=O)OC(C)(C)C(F)(F)F)C(=O)N4C3)cc(-c3ccc(OC(C)C)c(F)c3)nc2c1` [Compound 4247], the EC50 in experiment [1] (setting [3]) and in experiment [2] (setting [4]) was 1.01 to 5 nM in each case.

For the compound `CCOc1cnc(O[C@@H]2C[C@H]3C(=O)N[C@]4(C(=O)NS(=O)(=O)C5CC5)C[C@H]4/C=C\CC[C@@H](C)C[C@@H](CC)[C@H](NC(=O)OC(C)(C)C(F)(F)F)C(=O)N3C2)c2ccc(OC)cc12` [Compound 4249], the EC50 in experiment [1] (setting [3]) was in the range of 1.01 to 5 nM; in experiment [2] (setting [4]) it was 0.51 to 1 nM.

As to `CC[C@@H]1C[C@H](C)CC/C=C\[C@@H]2C[C@@]2(C(=O)NS(=O)(=O)C2(C)CC2)NC(=O)[C@@H]2C[C@@H](Oc3nc4cc(OC)ccc4nc3C(C)C)CN2C(=O)[C@H]1NC(=O)OC(C)(C)C` [Compound 4250, tert-butyl ((2R,6S,7R,9R,13aS,14aR,16aS,Z)-7-ethyl-2-((3-isopropyl-7-methoxyquinoxalin-2-yl)oxy)-9-methyl-14a-(((1-methylcyclopropyl)sulfonyl)carbamoyl)-5,16-dioxo-1,2,3,5,6,7,8,9,10,11,13a,14,14a,15,16,16a-hexadecahydrocyclopropa[e]pyrrolo[1,2-a][1,4]diazacyclopentadecin-6-yl)carbamate], the EC50 in experiment [1] (read-out: LE_1a (EC50, range)) is 1.01 to 5 nM; in experiment [2] (read-out: LE_1b (EC50, range)), 1.01 to 5 nM.

In the case of `CC[C@@H]1C[C@H](C)CC/C=C\[C@@H]2C[C@@]2(C(=O)NS(=O)(=O)C2(C)CC2)NC(=O)[C@@H]2C[C@@H](Oc3nc4cc(OC)ccc4nc3C(C)C)CN2C(=O)[C@H]1NC(=O)OC(C)(C)C(F)(F)F` [Compound 4251], the EC50 in experiment [1] (setting [3]) and in experiment [2] (setting [4]) was 1.01 to 5 nM each time.

Consider `CC[C@@H]1C[C@H](C)CC/C=C\[C@@H]2C[C@@]2(C(=O)NS(=O)(=O)C2CC2)NC(=O)[C@@H]2C[C@@H](Oc3ncc(OC)c4c(Cl)cccc34)CN2C(=O)[C@H]1NC(=O)OC(C)(C)C(F)(F)F` [Compound 4252], for which the results for the EC50 in experiment [1] (setting [3]) and in experiment [2] (setting [4]) were 1.01 to 5 nM and 0.51 to 1 nM, respectively.

For the compound `CC[C@@H]1C[C@H](C)CC/C=C\[C@@H]2C[C@@]2(C(=O)NS(=O)(=O)C2(C)CC2)NC(=O)[C@@H]2C[C@@H](Oc3ncc(OC)c4c(Cl)cccc34)CN2C(=O)[C@H]1NC(=O)OC(C)(C)C(F)(F)F` [Compound 4253], the values for the EC50 in experiment [1] (setting [3]) and in experiment [2] (setting [4]) were 1.01 to 5 nM and 0.51 to 1 nM, respectively.

Take `CC[C@@H]1C[C@H](C)CC/C=C\[C@@H]2C[C@@]2(C(=O)NS(=O)(=O)C2(C)CC2)NC(=O)[C@@H]2C[C@@H](Oc3ncc(N4CCN(S(C)(=O)=O)CC4)c4cc(OC)ccc34)CN2C(=O)[C@H]1NC(=O)OC(C)(C)C(F)(F)F` [Compound 4254]: the figures for the EC50 in experiment [1] (setting [3]) and in experiment [2] (setting [4]) were 1.01 to 5 nM and 0.51 to 1 nM, respectively.

For the compound `CC[C@@H]1C[C@H](C)CC/C=C\[C@@H]2C[C@@]2(C(=O)NS(=O)(=O)C2(C)CC2)NC(=O)[C@@H]2C[C@@H](Oc3nc4cc(OC)ccc4nc3Cl)CN2C(=O)[C@H]1NC(=O)OC(C)(C)C` [Compound 4256, tert-butyl ((2R,6S,7R,9R,13aS,14aR,16aS,Z)-2-((3-chloro-7-methoxyquinoxalin-2-yl)oxy)-7-ethyl-9-methyl-14a-(((1-methylcyclopropyl)sulfonyl)carbamoyl)-5,16-dioxo-1,2,3,5,6,7,8,9,10,11,13a,14,14a,15,16,16a-hexadecahydrocyclopropa[e]pyrrolo[1,2-a][1,4]diazacyclopentadecin-6-yl)carbamate], the EC50 in experiment [1] (read-out: LE_1a (EC50, range)) lay within 0.51 to 1 nM; in experiment [2] (read-out: LE_1b (EC50, range)), 0.1 to 0.5 nM.

`CC[C@@H]1C[C@H](C)CC/C=C\[C@@H]2C[C@@]2(C(=O)NS(=O)(=O)C2(C)CC2)NC(=O)[C@@H]2C[C@@H](Oc3nc4cc(OC)ccc4nc3Cl)CN2C(=O)[C@H]1NC(=O)OC(C)(C)C(F)(F)F` [Compound 4257]: the figures for the 50% effective concentration (EC50) in experiment [1] (setting [3]) and in experiment [2] (setting [4]) were 5.01 to 35 nM and 0.51 to 1 nM, respectively.

As to `COc1ccc2nc(C(C)C)c(O[C@@H]3C[C@H]4C(=O)N[C@]5(C(=O)NS(=O)(=O)C6(C)CC6)C[C@H]5/C=C\CC[C@@H](C)C[C@@H](C)[C@H](NC(=O)OC(C)(C)C(F)(F)F)C(=O)N4C3)nc2c1` [Compound 4259], the EC50 in experiment [1] (setting [3]) was 1.01 to 5 nM; in experiment [2] (setting [4]), 0.51 to 1 nM.

For the compound `COc1ccc2nc(O[C@@H]3C[C@H]4C(=O)N[C@]5(C(=O)NS(=O)(=O)C6(C)CC6)C[C@H]5/C=C\CC[C@@H](C)C[C@@H](C)[C@H](NC(=O)OC(C)(C)C)C(=O)N4C3)c(-c3ccc(OC(C)C)cc3)nc2c1` [Compound 4260, tert-butyl ((2R,6S,7R,9R,13aS,14aR,16aS,Z)-2-((3-(4-isopropoxyphenyl)-6-methoxyquinoxalin-2-yl)oxy)-7,9-dimethyl-14a-(((1-methylcyclopropyl)sulfonyl)carbamoyl)-5,16-dioxo-1,2,3,5,6,7,8,9,10,11,13a,14,14a,15,16,16a-hexadecahydrocyclopropa[e]pyrrolo[1,2-a][1,4]diazacyclopentadecin-6-yl)carbamate], the EC50 lay in the range of 1.01 to 5 nM in experiment [1] (read-out: LE_1a (EC50, range)) and 1.01 to 5 nM in experiment [2] (read-out: LE_1b (EC50, range)).

On to `COc1ccc2nc(O[C@@H]3C[C@H]4C(=O)N[C@]5(C(=O)NS(=O)(=O)C6(C)CC6)C[C@H]5/C=C\CC[C@@H](C)C[C@@H](C)[C@H](NC(=O)OC(C)(C)C(F)(F)F)C(=O)N4C3)c(-c3ccc(OC(C)C)cc3)nc2c1` [Compound 4261], for which the EC50 lay in the range of 5.01 to 35 nM in experiment [1] (setting [3]) and 1.01 to 5 nM in experiment [2] (setting [4]).

Regarding `CC[C@@H]1C[C@H](C)CC/C=C\[C@@H]2C[C@@]2(C(=O)NS(=O)(=O)C2CC2)NC(=O)[C@@H]2C[C@@H](Oc3nc4cc(OC)ccc4nc3O)CN2C(=O)[C@H]1NC(=O)OC(C)(C)C` [Compound 4262], the EC50 lay within 35 to 620 nM in experiment [1] (read-out: LE_1a (EC50, range)) and 35 to 620 nM in experiment [2] (read-out: LE_1b (EC50, range)).

For `CC[C@@H]1C[C@H](C)CC/C=C\[C@@H]2C[C@@]2(C(=O)NS(=O)(=O)C2CC2)NC(=O)[C@@H]2C[C@@H](Oc3nc4cc(OC)ccc4nc3C(F)(F)F)CN2C(=O)[C@H]1NC(=O)OC(C)(C)C(F)(F)F` [Compound 4263], the EC50 in experiment [1] (setting [3]) was 1.01 to 5 nM; in experiment [2] (setting [4]) it was 0.51 to 1 nM.

Consider `CC[C@@H]1C[C@H](C)CC/C=C\[C@@H]2C[C@@]2(C(=O)NS(=O)(=O)C2CC2)NC(=O)[C@@H]2C[C@@H](Oc3nc4cc(OC)c(F)cc4nc3O)CN2C(=O)[C@H]1NC(=O)OC(C)(C)C` [Compound 4265, tert-butyl ((2R,6S,7R,9R,13aS,14aR,16aS,Z)-14a-((cyclopropylsulfonyl)carbamoyl)-7-ethyl-2-((6-fluoro-3-hydroxy-7-methoxyquinoxalin-2-yl)oxy)-9-methyl-5,16-dioxo-1,2,3,5,6,7,8,9,10,11,13a,14,14a,15,16,16a-hexadecahydrocyclopropa[e]pyrrolo[1,2-a][1,4]diazacyclopentadecin-6-yl)carbamate], for which the EC50 in experiment [1] (read-out: LE_1a (EC50)) is 616 nM; in experiment [1] (read-out: LE_1a (EC50, range)) it was 35 to 620 nM; in experiment [2] (read-out: LE_1b (EC50)), 475 nM; in experiment [2] (read-out: LE_1b (EC50, range)), 35 to 620 nM.
